≈ marks a conversion by molar mass, not a printed value. Read-outs that look alike come from different tables or passages of the source. One block for each compound: values may come before it.
Assays:
Type in all cases: physicochemical
[1] = Gravimetric solubility measurements from competitive slurry samples; conditions: organic solvent or mixture, thermodynamic from solid, room temperature
From the text: In order to determine that Pattern 3 was not simply being dissolved in the solvent systems when the solid was introduced, gravimetric solubility measurements were made using the samples at room temperature. […] There was insufficient solubility at room temperature to dissolve the Pattern 3 present in the competitive slurry experiments.

[2] = Competitive slurries of Pattern 3 and Pattern 11, XRPD; conditions: competitive slurry, solvent and temperature per sample; for XRPD after 7 days: 20 vol
Experimental: A solid mixture of Structure (I) Pattern 3 (from Lot B, 300 mg) and Pattern 11 (Sample 35-1, 300 mg) was mixed for 3 hours using a turbula mixer.
The solid mixture (30 mg) was suspended in solvent (dried with molecular sieves, 600 μL, 20 vol) and either stirred in the fridge, shaken at RT or 55° C. After 7 days, an aliquot of each suspension was analyzed by XRPD. Samples that were still a mixture of forms were placed back into fridge/shakers for a further 10 days and re-analyzed (results shown in Table 36).
Competitive slurry experiments at 55° C., along with one at 5° C., were repeated using a saturated solution as the solvent mixture to minimize dissolution that may have occurred at temperatures other than room temperature.
A saturated solution of THF/Water (9:1) (5 mL) with Structure (I) (from Lot B) was equilibrated at 55° C. overnight in a shaker. The solution was filtered using 0.45 μm nylon filter before use.
A solid mixture of Pattern 3 and Pattern 11 (30 mg) was suspended in the saturated solution (600 μL, 20 vol) and either stirred in the fridge (5° C.) or shaken at 55° C. After 1 day, aliquots of the suspensions were analyzed by XRPD. Both samples were placed back into fridge/shaker. After a total of 11 days, the samples were removed from fridge/shaker. Sample 38-2 was filtered before XRPD, Sample 38-1 was pipetted onto the XRPD holder and allowed to dry before analysis (solid passed through filter).

[3] = Slurry in pH 2.0 buffer, XRPD; conditions: pH 2.0 chloride buffer, RT, 5 days
Experimental: Structure (I) (from Lot B, 30 mg) was suspended in pH 2.0 buffer (chloride buffer, 3 mL) and placed in a shaker at RT. After 1 day, the sample was filtered and analyzed by XRPD. The sample was re-suspended in pH 2.0 buffer (2 mL) and returned to shaking at RT for 4 days. The sample was aliquoted and analyzed by XRPD, before filtration and drying under suction.

[4] = Heating for 24 h in a vacuum tray dryer, XRPD and HPLC
Experimental: A polymorphism study of Structure (I) was performed at 75° C., 100° C., 175° C., and 250° C. About 500 mg of Structure (I) Pattern 3 was heated at 75° C. for 24 h in a vacuum tray dryer (VTD) under reduced pressure. Obtained material after heating at 75° C. was analyzed for purity by HPLC and XPRD analysis. […] Additionally, about 500 mg of Structure (I) was heated at 75° C. for 24 h in a VTD under reduced pressure. After 24 h, material was cooled to 25-30° C. under inert atmosphere and analyzed for purity by HPLC and XRPD.
About 500 mg of Structure (I) was heated at 100° C. for 24 h in a VTD under reduced pressure. Obtained material after heating at 100° C. was analyzed for purity by HPLC and XPRD. […] Additionally, about 500 mg of Structure (I) was heated at 100° C. for 24 h in a VTD under reduced pressure. After 24 h material was cooled to 25-30° C. under inert atmosphere. Obtained material was analyzed for purity by HPLC and XPRD.
Obtained material after heating at 175° C. was analyzed for purity by HPLC and XPRD. […] After 24 h, material was cooled to 25-30° C. under inert atmosphere. Obtained material was analyzed for purity by HPLC and XPRD.
About 500 mg of Structure (I) was heated at 250° C. for 24 h in a VTD. Obtained material after heating at 250° C. was analyzed for purity by HPLC and XPRD.

[5] = pKa measurements
[6] = XRPD under vacuum; conditions: vacuum released for 30 min, ambient conditions
From the text: (§1) XRPD diffractograms were collected on a PANalytical Empyrean diffractometer using Cu Kα radiation (45 kV, 40 mA, λ=1.544398 Å) in reflection geometry. The instrument was fitted with an Anton Paar CHC plus+ stage fitted with graphite/Kapton windows and equipped with air cooling coupled or a low vacuum pump system using an Edwards RV3 pump. A programmable divergence slit (in automatic mode), with a 10 mm fixed incident beam mask, Ni filter and 0.04 rad Soller slits were used on the incident beam. A PIXcel3D detector, placed on the diffracted beam, was fitted with a programmable anti-scatter slit (in automatic mode) and 0.04 rad Soller slits.
For XRPD under vacuum the samples were prepared and analyzed in an Anton Paar chromed sample holder. The sample temperature was kept constant throughout at 25° C. The measurement parameters are as per the standard screening data collection method (detailed above). An initial measurement was taken before the vacuum was initiated and then subsequently at 10 min intervals. Data collection was stopped after three consecutive scans showing no change.

[7] = Drying / standing under ambient conditions, XRPD; conditions: ambient conditions
Experimental: Structure (I) (Sample 28-2, 30 mg, Poorly Crystalline Pattern 3) was wetted with solvent (300 μL, 10 vol) according to Table 30 and put into a shaker at 50° C. for 6 days. The suspensions were isolated using filter cartridges and positive pressure. A XRPD pattern was collected for each sample. […] This characterization is presented and discussed in Examples detailed herein. (see, e.g., FIG. 75)

[8] = Variable temperature XRPD (VT-XRPD); conditions: 250° C.
From the text: as §1
For variable temperature (VT-XRPD) experiments the samples were prepared and analyzed in an Anton Paar chromed sample holder. The sample chamber was under ambient atmosphere and a heating/cooling rate of 10° C./min was used with a 2 min isothermal hold before the measurement started. The measurement parameters are as per the standard screening data collection method (detailed above). Measurements were taken at the following temperatures: 25, 80, 170, 250, and 25° C.

solubility ([1]; Toluene): 2300 µg/mL (≈ 6.28 mM) | XRPD after 7 days [2]: Patterns 3 and 11 | XRPD after 17 days [2]: Patterns 3 and 11
SMILES: Cc1cc(Nc2cc(N)ncn2)c(=O)n2c1C(=O)NC21CCC2(CC2)CC1 [Pattern 36-8]

solubility ([1]; IPA/Water (95:5)): 3800 µg/mL (≈ 10.4 mM) | XRPD after 7 days [2]: Patterns 3 and 11 | XRPD after 17 days [2]: Patterns 3 and 11
SMILES: Cc1cc(Nc2cc(N)ncn2)c(=O)n2c1C(=O)NC21CCC2(CC2)CC1 [Pattern 36-9]

solubility ([1]; THF/Water (9:1)): 8100 µg/mL (≈ 22.1 mM) | XRPD after 7 days [2]: Patterns 3 and 11 | XRPD after 17 days [2]: Patterns 3 and 11
SMILES: Cc1cc(Nc2cc(N)ncn2)c(=O)n2c1C(=O)NC21CCC2(CC2)CC1 [Pattern 36-10]

XRPD form after slurry in pH 2.0 buffer [3]: Pattern 1 | HPLC purity change after heating at 100° C. ([4]; 100° C., reduced pressure): no change | XRPD form after heating at 100° C. ([4]; 100° C., reduced pressure): remained as Pattern 3 | HPLC purity change after heating at 175° C. ([4]; 175° C., reduced pressure): no change | XRPD form after heating at 175° C. ([4]; 175° C., reduced pressure): converted to Pattern 11 | XRPD form after heating at 250° C. ([4]; 250° C.): converted to Pattern 11 | pKa ([5]; read-out: acidic pKa (acidic center)): 11.5 | pKa ([5]; read-out: basic pKa): 4.73
SMILES: Cc1cc(Nc2cc(N)ncn2)c(=O)n2c1C(=O)NC21CCC2(CC2)CC1 [Structure (I), 6″-((6-aminopyrimidin-4-yl)amino)-8″-methyl-2″H-dispiro[cyclopropane-1, l′-cyclohexane-4′,3″-imidazo[1,5-a]pyridine]-1″,5″-dione]

XRPD after vacuum released [6]: converted back to Pattern 3 | form under ambient conditions (XRPD after ambient overnight) [7]: converted back to Pattern 3 | VT-XRPD form at 250° C. [8]: partially converted to Pattern 11
SMILES: Cc1cc(Nc2cc(N)ncn2)c(=O)n2c1C(=O)NC21CCC2(CC2)CC1 [Pattern 10]

From patent publication US20260217712A1, “SOLID STATE FORMS OF MNK INHIBITORS” (4E Therapeutics, Inc., priority 2023, published 2026)
